From US20110152236A1 (SANOFI-AVENTIS, priority 2008, published 2011) come the findings set out here.

The structures appear in SMILES notation. Where two headings read alike, the source gives them in different places.

In one data set the target is T1, human CB1 receptor (Homo sapiens, UniProt P21554).
T1 construct: U373MG cells naturally expressing the human CB1 receptor; endogenous in cells; host or cells: U373MG cells
As to the kind of experiment: intracellular cyclic AMP test in U373MG cells (HTRF cAMP Dynamic Kit). It is filed as cell-based. How it is done:
The compounds according to the invention were the subject of pharmacological tests for determining the activity with respect to human cannabinoid CB1-type receptors. The efficacy of the compounds of formula (I) was determined in a functional test which measures cannabinoid CB1 receptor activity (intracellular cyclic AMP test). The test for detecting intracellular cyclic AMP in U373MG cells naturally expressing the human CB1 receptor was carried out as described in the following reference: Bouaboula et al., 1995, J. Biol. Chem. 270:13973-13980. The HTRF cAMP Dynamic Kit from CisBio was used to quantify the intracellular cyclic AMP. In this test, the IC50 values are between 0.001 μM and 2 μM.

Data set [1] addresses T2, cannabinoid CB1 receptor (Mus musculus, UniProt P47746).
T2 construct: from tissue; host or cells: whole animal (mice; male CD1 mice in the gastrointestinal transit model)
The data set can be described thus: model of hypothermia induced by cannabinoid CB1 receptor agonist racemic CP55,940 in mice. The following applies: 3 mg/kg po, hypothermia induced by CP55,940 1.25 mg/kg. The class given is in vivo. The protocol:
Other tests consisting in measuring the in vivo activity of the compounds of the invention were carried out. The antagonist activity of said compounds was shown by means of the model of hypothermia induced by a cannabinoid CB1 receptor agonist (racemic CP55,940 (1RS,3RS,4RS)-3-[hydroxy-2-(1,1-dimethylheptyl)phenyl]-4-(3-hydroxypropypcyclohexan-1-ol) at a dose of 1.25 mg/kg, in mice, according to the method described by R. G. Pertwee in Marijuana 84, Harvey D. J. eds, Oxford IRL Press, 263-277 (1985).

The target of data set [2] is T2, cannabinoid CB1 receptor. As to the kind of experiment: model of inhibition of gastrointestinal transit induced by racemic CP55,940 in mice. The class given is in vivo. The following applies: 1 mg/kg per os; 3 hours after administration of the product; CP55,940 0.15 mg/kg ip; male CD1 mice. How it is done:
The antagonistic activity of the compounds was also shown by means of the model of inhibition of gastrointestinal transit induced by racemic CP55,940 (1RS,3RS,4RS-3-[hydroxy-2-(1,1-dimethylheptyl)phenyl]-4-(3-hydroxypropyl)cyclohexan-1-ol) in mice, according to the method described by Rinaldi-Carmona et al., J. Pharmacol, Exp. Ther. 2004, 310, 905-914. Briefly, male CD1 mice receive the test product per os 30 minutes or 2 hours before administration of the racemic CP55,940 agonist (1RS,3RS,4RS-3-[hydroxy-2-(1,1-dimethylheptyl)phenyl]-4-(3-hydroxypropyl)cyclohexan-1-ol) (0.15 mg/kg ip in 10% Cremophor). After a further 30 minutes, the animals receive a charcoal bolus po. Thirty minutes later, the animals are euthanized (CO2/O2) and the intestine is dissected. The progression of the charcoal bolus in the intestine is expressed as percentage of the total length of the intestine.

By melting point is commonly meant the temperature of the solid-liquid transition. As a reminder, the IC50 is the midpoint of a concentration-inhibition curve.

T2 sequence (P47746 whole entry): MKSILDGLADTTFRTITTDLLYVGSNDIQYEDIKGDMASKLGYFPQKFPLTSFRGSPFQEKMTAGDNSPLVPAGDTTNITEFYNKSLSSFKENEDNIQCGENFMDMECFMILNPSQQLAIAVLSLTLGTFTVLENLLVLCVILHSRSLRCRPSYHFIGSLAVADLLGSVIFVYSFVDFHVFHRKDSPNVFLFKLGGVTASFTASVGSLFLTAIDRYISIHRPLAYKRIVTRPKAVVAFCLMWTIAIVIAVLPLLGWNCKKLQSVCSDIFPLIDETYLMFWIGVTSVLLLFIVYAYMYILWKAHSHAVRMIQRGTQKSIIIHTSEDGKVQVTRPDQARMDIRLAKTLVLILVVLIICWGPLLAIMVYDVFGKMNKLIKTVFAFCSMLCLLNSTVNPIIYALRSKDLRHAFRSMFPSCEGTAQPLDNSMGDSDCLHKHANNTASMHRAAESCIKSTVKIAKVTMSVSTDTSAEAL
T1 sequence (P21554 whole entry): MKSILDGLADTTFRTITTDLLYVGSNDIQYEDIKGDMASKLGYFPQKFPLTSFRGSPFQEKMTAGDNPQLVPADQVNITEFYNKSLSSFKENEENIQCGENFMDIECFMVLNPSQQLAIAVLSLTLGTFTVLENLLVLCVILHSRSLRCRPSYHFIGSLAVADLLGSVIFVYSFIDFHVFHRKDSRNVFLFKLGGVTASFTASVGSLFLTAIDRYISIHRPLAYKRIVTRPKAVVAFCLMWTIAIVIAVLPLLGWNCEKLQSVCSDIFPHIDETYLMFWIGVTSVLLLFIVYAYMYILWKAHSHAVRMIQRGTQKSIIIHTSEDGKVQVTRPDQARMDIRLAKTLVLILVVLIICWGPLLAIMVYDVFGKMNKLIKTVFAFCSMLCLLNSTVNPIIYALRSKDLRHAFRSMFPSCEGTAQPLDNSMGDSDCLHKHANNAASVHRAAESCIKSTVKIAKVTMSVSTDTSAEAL

In turn, `CS(=O)(=O)N(c1cccc(C(=O)Nc2ccon2)c1)C1CN(C(c2ccc(Cl)cc2)c2ccc(Cl)cc2)C1` [Compound 5, 3-[{1-[bis(4-chlorophenyl)methyl]azetidin-3-yl}(methylsulphonyl)amino]-N-(isoxazol-3-yl)-benzamide] yielded a melting point of 218 °C. The half-inhibitory concentration (IC50) on human CB1 receptor (U373MG cells naturally expressing the human CB1 receptor, intracellular cyclic AMP, read-out: IC50) was determined as 6 nM. Also, on cannabinoid CB1 receptor [1], the percentage inhibition came out at 28%. The percentages of inhibition at cannabinoid CB1 receptor [2] is given as 82%.

With `CS(=O)(=O)N(c1cccc(C(=O)Nc2ccccn2)c1)C1CN(C(c2ccc(Cl)cc2)c2ccc(Cl)cc2)C1` [Compound 7, 3-[{1-[Bis(4-chlorophenyl)methyl]azetidin-3-yl}(methylsulphonyl)amino]-N-(pyridin-2-yl)benzamide], the melting point is 202 °C. On cannabinoid CB1 receptor [1], the percentage inhibition was determined as 32%. This molecule also had a percentages of inhibition at cannabinoid CB1 receptor [2] of 68%.

Take `CS(=O)(=O)N(c1cc(F)cc(C(=O)NCc2ccc(=O)[nH]c2)c1)C1CN(C(c2ccc(Cl)cc2)c2ccc(Cl)cc2)C1` [Compound 47]: at human CB1 receptor, 9 nM corresponded to half-maximal inhibition (IC50). Moreover, the percentages of inhibition on cannabinoid CB1 receptor [2] was 68%.
